Patent publication US20060216238A1, “Compositions and methods for targeting or imaging a tissue in a vertebrate subject” (priority 2005, published 2006)

Experiments:
[1] = Trafficking of OG-CPMV in vivo by tissue fluorescence measurements; design: species or system mouse; details: oral, exception GI tissues and lymph nodes in 1 of 3 mice
Protocol: Inoculation of mice with free Oregon Green 488 dye. Mice were administered 3.81 μg per mouse of free OG-488 dye by oral gavage, the equivalent amount of dye as that attached to the CPMV particles given by oral gavage. One mouse per day for three days post inoculation was perfused and tissues were isolated for fluorescence measurements. Similarly, by the intravenous route three mice were injected with 0.509 μg per mouse of free OG-488 dye, the equivalent amount of dye as that attached to the CPMV particles administered i.v. Tissues were harvested from mice following perfusion as described above.
Fluorescence measurements. Tissues were isolated and homogenized in PBS, then centrifuged at 10,000 g for 10 minutes at 4° C. to precipitate the cell debris. The OG-488-specific fluorescence emissions in the clarified tissue supernatants were determined using a Varian Cary Eclipse fluorescence spectrophotometer. A control sample of sham-inoculated tissue supernatant from each tissue was spiked with a known amount of OG-CPMV and the tissue-specific dye excitation and emission were determined for each tissue. The determined tissue specific emission λ value was then used in five separate scans of each tissue supernatant sample, following which the spectra were averaged and the emission value of the sham-inoculated control sample was subtracted as background.

HUVECS = assay: Endothelial cell migration assay; type: cell-based, human
Protocol: Endothelial cell migration assay. Migration of calcein AM labeled cells (5 μM, 30 min, at 37° C.) was tested in the presence or absence of the CPMV chimeras using cell migration chambers Briefly, the lower wells were loaded with buffers containing various chemo-attractants. The framed filter membrane was positioned on the top and 50,000 calcein labeled HUVECs treated with/without the targeting chimeras were added to the top well above the membrane. The assembly was incubated for 2 h at 37° C. and the number of cells that transmigrated to the bottom wells was quantified by measuring the intensity of fluorescence at 488 nm.

[2] = tested on: CD8+ T cells producing IFN-γ and TNF-α; assay: Virus-specific CD8+ T-cell activity, ICCS assay; type: in vivo, mouse
LCMV = details: mouse, in vivo

Oregon Green 488 (OG-488) carboxylic acid, succinimidyl ester [free OG-488 dye]
fluorescence in tissues due to free dye [1]: negligible in all tissues at all time points

VEGF [reference compound]
stimulation of migration of cells across the filter (HUVECS): 30%

Lymphocytic choriomeningitis virus (LCMV), Armstrong strain
CD8+ T cells producing IFN-γ ([2]; assay 8 days after boosting): 13.53% | CD8+ T cells producing TNF-α ([2]; assay 8 days after boosting): 7.3% | CD8+ T-cells producing IFN-γ ([2]; primary response assay): 10% | CD8+ T-cells producing TNF-α ([2]; primary response assay): 6.5% | survival of lethal i.c. LCMV challenge (LCMV): enabled the mice to survive the lethal i.c. inoculation | survival of lethal i.c. LCMV challenge, boost experiment (LCMV): All mice inoculated with LCMV 6 weeks before survived
